Measured values taken from patent US20190031618A1, “BENZIMIDAZOLE DERIVATIVES USEFUL AS CB-1 INVERSE AGONISTS” (Janssen Pharmaceutica NV, priority 2015, published 2019).
Like-named read-outs stand apart in the source and are kept apart here.

Key:
Assay type in all cases: in vivo
[1] = test system: DIO mice; assay: Chronic DIO Mouse: food intake, body weight, plasma insulin; settings: chronic DIO mouse, (Std Err)
Procedure: Male 14-20-week old diet-induced obese mice are ordered from Taconic. Mice were started on a 60% fat diet (D12492, Research Diets, New Brunswick, N.J.) at 6 weeks of age. Mice are single-housed.
(§1) DIO mice received vehicle, test compound (@ 1, 3, 10, and 30 mg/kg) daily for 26 days. At the end of the experiment, the mice were euthanized and blood and tissues were collected.
Body weight and food weight (food intake) were monitored daily for days 1-5 and twice weekly thereafter.
(§2) Blood glucose was measured from the tail vein with a Lifescan glucometer. Plasma insulin was measured with an ELISA or HTRF kit (Cisbio). Plasma parameters were measured with an Olympus clinical chemistry analyzer.

[2] = test system: DIO mice; assay: Chronic DIO Mouse: insulin tolerance test; settings: for Insulin Tolerance Test Blood Glucose AUC (Std Err): day 21
Procedure: as §1
(§3) An insulin tolerance test (0.7 U/kg Humulin, ip) was performed on day 21 after a 4 hour food removal. Blood glucose was measured at 0, 15, 30, 60 and 120 minutes after insulin. After an overnight fast, an oral glucose tolerance test (2 g/kg glucose) was performed on day 23. Blood glucose was measured at 0, 30, 60 and 120 minutes after glucose challenge.
as §2

[3] = test system: DIO mice; assay: Chronic DIO Mouse: oral glucose tolerance test; settings: for Oral Glucose Tolerance Test Blood Glucose AUC: day 23
Procedure: as §1, §3, §2

[4] = Chronic DIO Mouse: plasma and brain concentrations; settings: oral, DIO mice, 2 Hours Post Dose
Procedure: as §1

SMILES: O=C(O)c1cccc(CN2CCC(n3c(C4CC4)nc4ccc(C(c5ccc(Cl)cc5)c5ccc(Cl)cc5)cc43)CC2)c1 [Example 148]
- Mean Daily Food Intake ([1]; 10 mg/kg daily, Day 4): 1.7 (0.2) Grams
- Mean Daily Food Intake ([1]; 10 mg/kg daily, Day 5): 1.8 (0.2) Grams
- Mean Daily Food Intake ([1]; 10 mg/kg daily, Day 8): 1.7 (0.1) Grams
- Mean Daily Food Intake ([1]; 10 mg/kg daily, Day 11): 2.0 (0.1) Grams
- Mean Daily Food Intake ([1]; 10 mg/kg daily, Day 15): 2.3 (0.1) Grams
- Mean Daily Food Intake ([1]; 10 mg/kg daily, Day 18): 2.3 (0.1) Grams
- Mean Daily Food Intake ([1]; 10 mg/kg daily, Day 24): 2.2 (0.2) Grams
- Mean Daily Food Intake ([1]; 30 mg/kg daily, Day 2): 0.1 (0.1) Grams
- Mean Daily Food Intake ([1]; 30 mg/kg daily, Day 3): 0.5 (0.1) Grams
- Mean Daily Food Intake ([1]; 30 mg/kg daily, Day 4): 0.7 (0.1) Grams
- Mean Daily Food Intake ([1]; 30 mg/kg daily, Day 5): 1.0 (0.2) Grams
- Mean Daily Food Intake ([1]; 30 mg/kg daily, Day 8): 1.3 (0.2) Grams
- Mean Daily Food Intake ([1]; 30 mg/kg daily, Day 11): 1.7 (0.2) Grams
- Mean Daily Food Intake ([1]; 30 mg/kg daily, Day 15): 2.3 (0.1) Grams
- Mean Daily Food Intake ([1]; 30 mg/kg daily, Day 18): 1.8 (0.2) Grams
- Mean Daily Food Intake ([1]; 30 mg/kg daily, Day 24): 2.4 (0.1) Grams
- Insulin Tolerance Test Blood Glucose AUC (Std Err) ([2]; 1 mg/kg daily): 19606.5 mg·min/dL
- Insulin Tolerance Test Mean Blood Glucose (Std Err) ([2]; 1 mg/kg daily, day 21, 0 min after insulin): 194.8 mg/dL
- Insulin Tolerance Test Mean Blood Glucose (Std Err) ([2]; 1 mg/kg daily, day 21, 15 min after insulin): 193.3 mg/dL
- Insulin Tolerance Test Mean Blood Glucose (Std Err) ([2]; 1 mg/kg daily, day 21, 30 min after insulin): 155 mg/dL
- Insulin Tolerance Test Mean Blood Glucose (Std Err) ([2]; 1 mg/kg daily, day 21, 60 min after insulin): 161.3 mg/dL
- Insulin Tolerance Test Mean Blood Glucose (Std Err) ([2]; 1 mg/kg daily, day 21, 120 min after insulin): 150 mg/dL
- Insulin Tolerance Test Blood Glucose AUC (Std Err) ([2]; 3 mg/kg daily): 17812.5 (1054.85) mg/dL * min
- Insulin Tolerance Test Mean Blood Glucose (Std Err) ([2]; 3 mg/kg daily, day 21, 0 min after insulin): 185.9 (6.57) mg/dL
- Insulin Tolerance Test Mean Blood Glucose (Std Err) ([2]; 3 mg/kg daily, day 21, 15 min after insulin): 160.9 (7.24) mg/dL
- Insulin Tolerance Test Mean Blood Glucose (Std Err) ([2]; 3 mg/kg daily, day 21, 30 min after insulin): 138.9 (9.10) mg/dL
- Insulin Tolerance Test Mean Blood Glucose (Std Err) ([2]; 3 mg/kg daily, day 21, 60 min after insulin): 150.9 (11.66) mg/dL
- Insulin Tolerance Test Mean Blood Glucose (Std Err) ([2]; 3 mg/kg daily, day 21, 120 min after insulin): 136.3 (9.51) mg/dL
- Insulin Tolerance Test Blood Glucose AUC (Std Err) ([2]; 10 mg/kg daily): 17930.25 (556.44) mg/dL * min
- Insulin Tolerance Test Mean Blood Glucose (Std Err) ([2]; 10 mg/kg daily, day 21, 0 min after insulin): 168.8 (7.13) mg/dL
- Insulin Tolerance Test Mean Blood Glucose (Std Err) ([2]; 10 mg/kg daily, day 21, 15 min after insulin): 172.6 (9.66) mg/dL
- Insulin Tolerance Test Mean Blood Glucose (Std Err) ([2]; 10 mg/kg daily, day 21, 30 min after insulin): 139.1 (7.03) mg/dL
- Insulin Tolerance Test Mean Blood Glucose (Std Err) ([2]; 10 mg/kg daily, day 21, 60 min after insulin): 146.7 (5.80) mg/dL
- Insulin Tolerance Test Mean Blood Glucose (Std Err) ([2]; 10 mg/kg daily, day 21, 120 min after insulin): 144.8 (5.86) mg/dL
- Insulin Tolerance Test Blood Glucose AUC (Std Err) ([2]; 30 mg/kg daily): 14575.5 mg·min/dL
- Insulin Tolerance Test Mean Blood Glucose (Std Err) ([2]; 30 mg/kg daily, day 21, 0 min after insulin): 143 mg/dL
- Insulin Tolerance Test Mean Blood Glucose (Std Err) ([2]; 30 mg/kg daily, day 21, 15 min after insulin): 147.6 mg/dL
- Insulin Tolerance Test Mean Blood Glucose (Std Err) ([2]; 30 mg/kg daily, day 21, 30 min after insulin): 119.8 mg/dL
- Insulin Tolerance Test Mean Blood Glucose (Std Err) ([2]; 30 mg/kg daily, day 21, 60 min after insulin): 121.3 mg/dL
- Insulin Tolerance Test Mean Blood Glucose (Std Err) ([2]; 30 mg/kg daily, day 21, 120 min after insulin): 104.5 mg/dL
- Oral Glucose Tolerance Test Blood Glucose AUC ([3]; 1 mg/kg daily): 19362 mg·min/dL
- Oral Glucose Tolerance Test Mean Blood Glucose ([3]; 1 mg/kg daily, day 23, 0 min after glucose): 139.90 mg/dL
- Oral Glucose Tolerance Test Mean Blood Glucose ([3]; 1 mg/kg daily, day 23, 30 min after glucose): 179.2 mg/dL
- Oral Glucose Tolerance Test Mean Blood Glucose ([3]; 1 mg/kg daily, day 23, 60 min after glucose): 168.5 mg/dL
- Oral Glucose Tolerance Test Mean Blood Glucose ([3]; 1 mg/kg daily, day 23, 120 min after glucose): 143.5 mg/dL
- Oral Glucose Tolerance Test Blood Glucose AUC ([3]; 3 mg/kg daily): 19705 mg·min/dL
- Oral Glucose Tolerance Test Mean Blood Glucose ([3]; 3 mg/kg daily, day 23, 0 min after glucose): 154.89 mg/dL
- Oral Glucose Tolerance Test Mean Blood Glucose ([3]; 3 mg/kg daily, day 23, 30 min after glucose): 153.11 mg/dL
- Oral Glucose Tolerance Test Mean Blood Glucose ([3]; 3 mg/kg daily, day 23, 60 min after glucose): 183.89 mg/dL
- Oral Glucose Tolerance Test Mean Blood Glucose ([3]; 3 mg/kg daily, day 23, 120 min after glucose): 150.44 mg/dL
- Oral Glucose Tolerance Test Blood Glucose AUC ([3]; 10 mg/kg daily): 19740 mg·min/dL
- Oral Glucose Tolerance Test Mean Blood Glucose ([3]; 10 mg/kg daily, day 23, 0 min after glucose): 141.60 mg/dL
- Oral Glucose Tolerance Test Mean Blood Glucose ([3]; 10 mg/kg daily, day 23, 30 min after glucose): 190.1 mg/dL
- Oral Glucose Tolerance Test Mean Blood Glucose ([3]; 10 mg/kg daily, day 23, 60 min after glucose): 176.2 mg/dL
- Oral Glucose Tolerance Test Mean Blood Glucose ([3]; 10 mg/kg daily, day 23, 120 min after glucose): 132.8 mg/dL
- Oral Glucose Tolerance Test Blood Glucose AUC ([3]; 30 mg/kg daily): 19276.5 mg·min/dL
- Oral Glucose Tolerance Test Mean Blood Glucose ([3]; 30 mg/kg daily, day 23, 0 min after glucose): 125.30 mg/dL
- Oral Glucose Tolerance Test Mean Blood Glucose ([3]; 30 mg/kg daily, day 23, 30 min after glucose): 184.5 mg/dL
- Oral Glucose Tolerance Test Mean Blood Glucose ([3]; 30 mg/kg daily, day 23, 60 min after glucose): 179 mg/dL
- Oral Glucose Tolerance Test Mean Blood Glucose ([3]; 30 mg/kg daily, day 23, 120 min after glucose): 126.9 mg/dL
- concentration at 2 h ([4]; brain, 1 mg/kg daily, Day 25, read-out: Brain Concentration (Std Dev)): 18.2 ng/g
- concentration at 2 h ([4]; brain, 3 mg/kg daily, Day 25, read-out: Brain Concentration (Std Dev)): 29.9 ng/g
- concentration at 2 h ([4]; brain, 10 mg/kg daily, Day 25, read-out: Brain Concentration (Std Dev)): 42 ng/g
- concentration at 2 h ([4]; brain, 30 mg/kg daily, Day 25, read-out: Brain Concentration (Std Dev)): 73.5 ng/g
- concentration at 2 h ([4]; plasma, 1 mg/kg daily, Day 25, read-out: Plasma Concentration (Std Dev)): 288 ng/mL
- concentration at 2 h ([4]; plasma, 3 mg/kg daily, Day 25, read-out: Plasma Concentration (Std Dev)): 1350 ng/mL
- concentration at 2 h ([4]; plasma, 10 mg/kg daily, Day 25, read-out: Plasma Concentration (Std Dev)): 3430 ng/mL
- concentration at 2 h ([4]; plasma, 30 mg/kg daily, Day 25, read-out: Plasma Concentration (Std Dev)): 15200 ng/mL
